Results published in publication PMC8807614 (Scientific Reports, 2022).
Entries after “also recorded” stand apart in the source; their conditions may differ. Peptide text beside a SMILES is read from it.

Tests used:
[1] = plasma of DIO mice 4 h after last dosing on treatment day 6 (SC, BID); conditions: DIO mice (male C57BL/6 J), up to 4 h after last dosing on treatment day 6
[2] = plasma from cardiac blood samples of DIO mice dosed with GUB03385 (SC); conditions: DIO mice (male C57BL/6 J), up to 120 min
[3] = target: T1, human prolactin releasing peptide receptor (GPR10) (Homo sapiens, UniProt P49683); assay: GPR10 functional activity assay (IP1, HTRF); format: cell-based; conditions: Chem-1 cells stably expressing human GPR10, 10.000 cells/well; HTRF IP1 (CisBio); 30 min at 37 °C; IP1 stimulation buffer with 0.05% casein; 11 concentrations
T1 sequence (P49683 1-370): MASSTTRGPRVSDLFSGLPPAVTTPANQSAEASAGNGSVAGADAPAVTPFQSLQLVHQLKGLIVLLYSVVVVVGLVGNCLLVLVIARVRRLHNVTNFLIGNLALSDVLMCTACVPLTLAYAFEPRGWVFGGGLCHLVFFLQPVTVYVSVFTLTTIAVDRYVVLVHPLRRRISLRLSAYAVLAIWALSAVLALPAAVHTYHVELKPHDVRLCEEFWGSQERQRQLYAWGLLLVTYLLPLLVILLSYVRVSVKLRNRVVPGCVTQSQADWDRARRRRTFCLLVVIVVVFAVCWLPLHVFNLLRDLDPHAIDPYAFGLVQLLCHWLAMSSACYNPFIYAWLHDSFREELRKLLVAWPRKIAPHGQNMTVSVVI

human NPFF2R = human NPFF2R (Homo sapiens, UniProt Q9Y5X5); assay: NPFF2R functional activity assay (cAMP, HTRF); format: cell-based; conditions: CHO-K1 cells stably expressing human NPFF2R, 1500 cells/well; HTRF cAMP (CisBio); 3 µM forskolin (~90% activity level); 30 min; DPBS, 0.5 mM IBMX, 0.05% casein; 11 concentrations
Sequence of human NPFF2R (Q9Y5X5 whole entry): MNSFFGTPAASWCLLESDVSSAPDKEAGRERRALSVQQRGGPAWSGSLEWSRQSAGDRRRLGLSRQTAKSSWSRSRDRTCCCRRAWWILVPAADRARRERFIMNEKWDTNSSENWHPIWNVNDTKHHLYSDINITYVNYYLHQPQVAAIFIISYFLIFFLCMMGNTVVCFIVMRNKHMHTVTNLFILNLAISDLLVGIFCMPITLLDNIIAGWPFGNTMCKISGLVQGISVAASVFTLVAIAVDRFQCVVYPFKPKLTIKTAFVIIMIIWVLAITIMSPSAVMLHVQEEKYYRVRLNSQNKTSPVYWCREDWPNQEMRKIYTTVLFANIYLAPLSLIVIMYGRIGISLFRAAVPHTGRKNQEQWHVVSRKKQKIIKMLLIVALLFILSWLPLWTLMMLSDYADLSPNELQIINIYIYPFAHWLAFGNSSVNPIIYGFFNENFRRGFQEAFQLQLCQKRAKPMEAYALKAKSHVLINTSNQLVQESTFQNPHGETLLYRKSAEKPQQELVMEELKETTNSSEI
Procedure: Figure 3 GPR10 and NPFF2R profiling of in vivo metabolites of GUB03385. […] (b) cAMP measurements in human NPFF2R CHO-K cells (HTRF technology, CisBio) at a fixed concentration of 3 µM forskolin after 30 min. incubation at room temperature with metabolites and the native peptide NPSF. Representative curves of three determinations.
The Homogenous Time Resolved Fluorescence (HTRF) technology optimized for Gq coupled receptors has thoroughly been described in the CisBio IP1 kit manual (#62IPAPEC) and in the cAMP assay kit manual for Gi coupled receptors (#62AM9PEC). Briefly, this technic is based on a competitive immunoassay using cryptate-labelled anti-cAMP or anti-IP1 antibodies and d2-labeled cAMP or IP1. In the absence of cellular cAMP or IP1, the anti-cryptate conjugate may get into proximity to the d2 conjugate and energy (FRET) can be transferred from cryptate to d2. Chem-1 cells stably expressing the human prolactin releasing peptide receptor (GPR10, Eurofins, # HTS057C) and irradiated CHO-K1 cells stably expressing the human NPFF2R (PerkinElmer, #ES-490-CF) were applied as cells in suspension, brought to life from frozen cell stocks immediately before assay performance. 384-Well (Corning, #4513) assay formats with a total assay volume of 20 µl were applied. GPR10 cells (10.000 cells/well) were incubated with agonist peptides and the NPFF2R cells (1500 cells/well) were incubated with agonist peptides and forskolin (~ 90% activity level) for 30 min at 37 °C using IP1 kit stimulation buffer and DPBS (Sigma, #D8537) containing 0.5 mM IBMX (Sigma, # I5879), receptively. Both stimulation buffers were supplemented with 0.05% casein (Sigma, # C4765-10 ml). After addition of HTRF® detection reagents and incubation with shaking (2400 rpm) for one hour at room temperature signals at 620 and 665 nm (raw counts: ratio of 665/620) were detected at a ClarioStar plate reader (BMG Labtech, Ortenberg, Germany). Concentration–response evaluation of compounds was performed with 11 concentrations of agonist peptides (covering 3 decades) and EC50 values were calculated by nonlinear regression using sigmoid concentration–response with variable slope. Data were analysed using GraphPad v9.1 software (GraphPad, La Jolla, CA).

DIO mice = assay: In vivo efficacy of lipidated PrRP31 analogues in DIO mice (body weight, food intake); design: species or system male C57BL/6 J mice
Procedure: For all in vivo studies, male C57BL/6 J mice (5 weeks old, n = 7–8) were purchased from Janvier Labs (Le Genest Saint Isle, France). Individual animals were identified by implantable subcutaneous microchips (PetID Microchip, E-vet, Haderslev, Denmark). Mice were housed in a controlled environment (12 h light/dark cycle, lights on at 3 AM, 21 ± 2 °C, humidity 50 ± 10%) and had ad libitum access to tap water and regular chow (Altromin 1324, Brogaarden, Hørsholm, Denmark) or high-fat diet (60% fat, D12492 Research diet) for up to 47 weeks prior to the initiation of the study. All animal experiments were conducted in accordance to internationally accepted principles for the care and use of laboratory animals. All experiments were approved by The Animal Experimentation Council, Danish Veterinary and Food Administration (license #2013-15-2934-00784) and the Gubra ethics committee. All experiments complied with the ARRIVE guidelines.
Compounds were freshly prepared in vehicle (PBS with 0.1% BSA, pH 4) just prior to dosing. Semaglutide was purchased from Hoersholm Pharmacy (Hoersholm, Denmark). All animals were single housed two weeks prior to treatment and throughout the remaining of the study period. Mice were randomized to treatment according to body weight (n = 7–8 per group) and dosed subcutaneously (SC, 5 ml/kg) for a total of 7 days with vehicle (BID), semaglutide (10 nmol/kg, QD) or peptide analogues (1,250 nmol/kg, BID). All compounds were administered during the light phase. Body weight and food intake (24 h) were measured daily during the treatment period and one week after treatment. In vivo data were subjected to relevant statistical analyses using GraphPad v9.1 software (GraphPad, La Jolla, CA). Statistical evaluation was carried out using Dunnett’s test one-factor linear model (endpoint body weight, food intake, cumulative food intake). A p-value less than 0.05 was considered statistically significant.

[4] = Plasma peptide concentrations 4 h after last dosing in DIO mice; format: in vivo, male C57BL/6 J mice; conditions: treatment day 6, 1,250 nmol/kg SC BID
Procedure: (a) Body weight. (b) 24 h food intake. (c) total food intake during treatment phase. (d) total food intake during wash-out phase. (e) Plasma peptide concentrations as measured 4 h after last dosing (treatment day 6). Peptides were administered (SC, BID) at a dose of 1250 nmol/kg (n = 7–8 per group). **p < 0.01, ***p < 0.001 compared to vehicle.
Figure 4 Lipidated metabolites of GUB03385 robustly reduce body weight and food intake in DIO mice. Effect of subchronic treatment (days 0–6) with GUB08248, GUB08251, GUB10194 and GUB10195 followed by 7-day wash-out period (days 7–13, marked in grey). In vivo efficacy was compared to semaglutide (10 nmol/kg, SC, QD, n = 8). (a) Body weight. (b) 24 h food intake. (c) Total food intake during treatment phase. (d) Total food intake during wash-out phase. (e) Plasma peptide concentrations as measured 4 h after last dosing (treatment day 6).
Compounds were freshly prepared in vehicle (PBS with 0.1% BSA, pH 4) just prior to dosing. Semaglutide was purchased from Hoersholm Pharmacy (Hoersholm, Denmark). All animals were single housed two weeks prior to treatment and throughout the remaining of the study period. […] Body weight and food intake (24 h) were measured daily during the treatment period and one week after treatment. […]

Question: For “SRGK*RPVGRF (K* lipid chain: C18 γE OEG OEG)”, which fragment found [1] is on record?
Answer: Its fragment found is “GUB08251”.

Question: Which fragment found [2] does the source give for “SRTHRHSMEIRTPDINPAWYASRGK*RPVGRF (K* lipid chain: C18 γE OEG OEG; C-terminally amidated)” here?
Answer: Its fragment found is “GUB08247: ASRGK*RPVG (C18 γE OEG OEG), major, 30 min; also recorded: GUB08248: SRGK*RPVGRF (C18 γE OEG OEG), major, 30 min; also recorded: GUB08249: SRGK*RPVG (C18 γE OEG OEG), major, 30 min; also recorded: GUB08250: SRGK*RPV (C18 γE OEG OEG), major, 30 min; also recorded: GUB08251: GK*RPVGRF (C18 γE OEG OEG), major, 60 min; also recorded: GUB08252: K*RPVGR (C18 γE OEG OEG), major, 60 min; also recorded: GUB08253: K*RPVG (C18 γE OEG OEG), major, 60 min; also recorded: GUB08254: K*RPV (C18 γE OEG OEG), major, 60 min”.

Question: Which fragment found [1] does the source give for “SRGK*RPVGRF (K* lipid chain: C18DA γE OEG OEG)” here?
Answer: Its fragment found is “GUB10195”.

Question: Which results are given for `CCCCCCCCCCCCCCCC(=O)N[C@@H](CCC(=O)NCCCC[C@H](NC(=O)[C@@H](NC(=O)[C@H](CCC(=O)O)NC(=O)[C@H](CCSC)NC(=O)[C@H](CO)NC(=O)[C@H](Cc1c[nH]cn1)NC(=O)[C@H](CCCNC(=N)N)NC(=O)[C@H](Cc1c[nH]cn1)NC(=O)[C@@H](NC(=O)[C@H](CCCNC(=N)N)NC(=O)[C@@H](N)CO)[C@@H](C)O)[C@@H](C)CC)C(=O)N[C@H](C(=O)N1CCC[C@H]1C(=O)N[C@@H](CC(=O)O)C(=O)N[C@H](C(=O)N[C@@H](CC(N)=O)C(=O)N1CCC[C@H]1C(=O)N[C@@H](C)C(=O)N[C@@H](Cc1c[nH]c2ccccc12)C(=O)N[C@@H](Cc1ccc(O)cc1)C(=O)N[C@@H](C)C(=O)N[C@@H](CO)C(=O)N[C@@H](CCCNC(=N)N)C(=O)NCC(=O)N[C@H](C(=O)N[C@@H](CCCNC(=N)N)C(=O)N1CCC[C@H]1C(=O)N[C@H](C(=O)NCC(=O)N[C@@H](CCCNC(=N)N)C(=O)N[C@@H](Cc1ccccc1)C(N)=O)C(C)C)[C@@H](C)CC)[C@@H](C)CC)[C@@H](C)O)C(=O)O` [GUB02647] (HELM PEPTIDE1{S.R.T.H.R.H.S.M.E.I.K.T.P.D.I.N.P.A.W.Y.A.S.R.G.I.R.P.V.G.R.F.[am]}|PEPTIDE2{[CCCCCCCCCCCCCCCC(=O)[*:2]].[gGlu]}$PEPTIDE1,PEPTIDE2,11:R3-2:R2$$$V2.0)?
Answer: EC50 [3]: 0.3 nM; EC50 (human NPFF2R): 147 nM; effect on food intake (DIO mice; 1,250 nmol/kg SC BID days 0-6, wash-out days 7-13, 24 h food intake measured daily): significantly suppressed food intake during the treatment period, but not in the wash-out phase; body weight loss, day 7 (DIO mice; 1,250 nmol/kg SC BID for 7 days (days 0-6), after last dosing, n = 7-8 per group): 11.8 ± 1.0%; body weight loss, day 13 (DIO mice; 1,250 nmol/kg SC BID for 7 days, then 7-day wash-out, n = 7-8 per group): 8.1 ± 1.0%; weight loss (as summarised in discussion) (DIO mice; subchronic SC treatment with 1,250 nmol/kg BID, time point not stated): 8%; plasma exposure 4 h after last dosing [4]: not detected in plasma; also recorded: undetectable in plasma
